Consider three compounds from patent US20030143559A1, “Novel estrogen receptor ligand binding domain variants and novel ligands and pharmaceutical compositions” (priority 2001, published 2003).

By EC50 is commonly meant the concentration that produces a half-maximal response. By IC50 is commonly meant the concentration needed to halve the response being measured. Broadly, the melting point is the temperature, or range, at which the solid turns liquid.

Residue numbers refer to the chain shown, from its start. Values joined by “and” are separate entries in the source; they are usually repeats but may differ in a detail not shown here. Identical values can stand only once.

The target of one series is T1, Av3-388V/424Y/428A (Homo sapiens, UniProt P03372, I424Y/L428A/M388V).
T1 construct: fragment B=ER amino acids 258-554; expressed in transfected cells; host or cells: HeLa cells transduced with Av3 or gutless adenoviral vector
T1 sequence (P03372 258-554 M388V/I424Y/L428A): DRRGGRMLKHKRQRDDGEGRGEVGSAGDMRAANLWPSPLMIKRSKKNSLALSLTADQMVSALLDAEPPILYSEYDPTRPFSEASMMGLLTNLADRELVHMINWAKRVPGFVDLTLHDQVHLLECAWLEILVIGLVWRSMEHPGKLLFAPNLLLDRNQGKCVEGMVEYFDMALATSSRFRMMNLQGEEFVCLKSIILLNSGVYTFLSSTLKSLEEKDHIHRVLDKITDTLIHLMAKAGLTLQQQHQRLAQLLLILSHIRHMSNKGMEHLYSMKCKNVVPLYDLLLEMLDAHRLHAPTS
Description: Transactivation on adenoviral (Av3)-delivered ER variant, luciferase in HeLa cells. The format is cell-based. Particulars: 100 nM test compound, 24 hrs (FIG. 5). From the text:
Xu et al., Molecular Therapy, 3:262-273, 2000.

Series [1] concerns the target T2, 388V-424Y-428A transcription factor (Homo sapiens, UniProt P03372, I424Y/L428A/M388V).
T2 construct: fragment B=ER amino acids 258-554; expressed in transfected cells; host or cells: HeLa cells transduced with Av3 or gutless adenoviral vector
T2 sequence (P03372 258-554 M388V/I424Y/L428A): T1 sequence (P03372 258-554 M388V/I424Y/L428A)
The series is described as follows: In vitro inducible luciferase expression with gutless adenoviral transcription factor vector in Hela cells. The class given is cell-based.

Series [2] addresses T3, 388V-424Y-428A transcription factor system (Homo sapiens, UniProt P03372, I424Y/L428A/M388V).
T3 construct: fragment B=ER amino acids 258-554; expressed in transfected cells; host or cells: HeLa cells transduced with Av3 or gutless adenoviral vector
T3 sequence (P03372 258-554 M388V/I424Y/L428A): T1 sequence (P03372 258-554 M388V/I424Y/L428A)
Description: In vivo regulation of endostatin transgene, gutless vectors, serum endostatin ELISA. Details: species or system C57BL/6 mice. Particulars: 50 ug/animal IP; for Endostatin Levels: vectors 5×10^10 particles/mouse each, n = 3. As for the experimental part:
To address this issue of sustained induction, a second in vivo study was performed.
For orientation: ELISA stands for enzyme-linked immunosorbent assay.

Another series deals with T4, ER-LBD 388V/424Y/428A (Homo sapiens, UniProt P03372, I424Y/L428A/M388V).
T4 construct: expressed in transfected cells; host or cells: HeLa
T4 sequence (P03372 311-547 M388V/I424Y/L428A): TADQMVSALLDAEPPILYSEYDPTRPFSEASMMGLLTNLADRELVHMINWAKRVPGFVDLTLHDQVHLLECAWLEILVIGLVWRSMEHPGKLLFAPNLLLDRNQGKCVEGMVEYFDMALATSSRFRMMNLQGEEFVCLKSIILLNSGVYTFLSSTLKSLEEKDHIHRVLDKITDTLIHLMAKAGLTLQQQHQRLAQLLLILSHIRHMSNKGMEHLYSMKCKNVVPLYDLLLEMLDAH
Description: ER-LBD 388V/424Y/428A transactivation, cotransfection luciferase reporter assay in HeLa cells. The class given is cell-based. Here is the method:
(§1) In order to evaluate the ability of the fusion proteins C7LBD A, B, and the related LBD mutants to regulate transgene expression, a standard co-transfection reporter assay was performed. A reporter construct, henceforth known as 6×2C7pGL3Luc, containing six copies of a directly repeated C7 binding site (6×2C7) inserted upstream of an SV40 promoter fragment and reporter gene encoding firefly luciferase (pGL3Pro; Promega) was transfected along with the designated fusion protein and assayed as described below. Note the consensus C7 binding site is 5′-GCG TGG GCG-3′.
(§2) Cultured cells (HeLa, Cos, Hep3B or other) were seeded at 5×10^4 cells/well in a 24 well plate prior to the day of transfection in DMEM Phenol-free media, supplemented with L-glutamine and 5% (v/v) charcoal-dextran stripped Fetal Bovine serum (sFBS). Cells were transfected using the Qiagen Superfect Transfection method. For each well 1 μg of total DNA, containing 0.5 μg luciferase reporter plasmid (6×2C7pGL3Luc), 0.1 μg of chimeric activator DNA (e.g., C7LBDA, C7LBDB, or mutants thereof ), and 0.4 μg of an inert carrier plasmid DNA (p3Kpn), was mixed with 60 μL of DMEM phenol-free/serum free media, and 5 μL of Superfect reagent. In general, about 10 ng to about 0.5 μg of chimeric activator DNA was used for each well. […]
Background: In a reporter assay the amount or activity of a reporter protein is the signal.

In the next series the target is T5, wild-type ER (Homo sapiens, UniProt P03372).
T5 construct: expressed in transfected cells; host or cells: COS-7
T5 sequence (P03372 1-595): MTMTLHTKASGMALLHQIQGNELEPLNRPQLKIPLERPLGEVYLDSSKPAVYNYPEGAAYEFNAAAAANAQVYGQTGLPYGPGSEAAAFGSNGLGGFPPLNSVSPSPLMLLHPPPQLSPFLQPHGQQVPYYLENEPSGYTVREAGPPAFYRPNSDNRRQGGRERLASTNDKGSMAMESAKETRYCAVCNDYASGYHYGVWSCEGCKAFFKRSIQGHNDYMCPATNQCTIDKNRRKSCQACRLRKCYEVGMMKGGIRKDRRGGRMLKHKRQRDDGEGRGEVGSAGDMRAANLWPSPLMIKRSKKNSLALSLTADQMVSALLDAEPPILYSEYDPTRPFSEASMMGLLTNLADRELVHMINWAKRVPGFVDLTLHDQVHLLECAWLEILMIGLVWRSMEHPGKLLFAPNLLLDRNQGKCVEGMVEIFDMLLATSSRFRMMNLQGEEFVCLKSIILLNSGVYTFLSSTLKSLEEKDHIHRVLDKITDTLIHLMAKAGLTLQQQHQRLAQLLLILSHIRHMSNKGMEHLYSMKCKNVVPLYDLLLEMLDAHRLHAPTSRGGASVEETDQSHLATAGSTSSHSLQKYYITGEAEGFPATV
The series is described as follows: Inhibition of E2 activity on wild-type ER, COS-7 cells with pHEGO and ERE luciferase reporter. Particulars: IC50 ± STDEV, pHEGO and pERETkLuc, E2 (3 nM) + 0.1 to 1000 nM compound. The class given is cell-based. As for the experimental part:
For transfection, 0.5 microgram of pERE2tkluc reporter plasmid, 20 ng of pHEGO, and 0.5 microgram of pCIneo inert carrier DNA were combined with 60 microliter serum-free DMEM and 5 microliter Qiagen Superfect transfection reagent, vortexed for 10s, and set at room temperature for 10 min. Each sample was diluted with 350 microliters of steroid-free media, mixed, and added to each well. Following 2 hr 30 min incubation at 37° C., cells were washed once with Dulbecco's phosphate buffered saline (DPBS), and refed with steroid-free media. […] Approximately 24 hr after treatment, cells were washed once with DPBS, then 200 microliter of reporter lysis buffer was added per well and frozen at −80° C. Cells were thawed at room temperature on an orbital shaker for 1 hr 30 min. A 10 microliter aliquot of lysate was transferred to 96 well opaque plates, and relative luciferase units (RLU) determined on a luminometer using the appropriate firefly luciferase substrate.
Note that the nonspecific activity is a noncompetable element in the assay system.
In order to dissolve them completely, all the solutions were warmed in 55° C. or boiled water bath for 10 to 20 min before use. The DMSO in cell culture medium was maintained to 0.01% for all the drug concentration tested as well as the vehicle control.

The target of another series is T6, ER-LBD 421V/428A (Homo sapiens, UniProt P03372, L428A/M421V).
T6 construct: expressed in transfected cells; host or cells: HeLa
T6 sequence (P03372 311-547 M421V/L428A): T4 sequence (P03372 311-547 M388V/I424Y/L428A) with V78M, M111V, Y114I
The series is described as follows: ER-LBD 421V/428A transactivation, cotransfection luciferase reporter assay in HeLa cells. The class given is cell-based. Particulars: p6x2C7Luc reporter, 0.003 to 1000 nM, mean of two or more experiments, read-out: EC50 ± STDEV. As for the experimental part:
as §1, §2

A further series has as its target T7, Av3-421/428 (Homo sapiens, UniProt P03372, L428A/M421V).
T7 sequence (P03372 258-554 M421V/L428A): T1 sequence (P03372 258-554 M388V/I424Y/L428A) with V131M, M164V, Y167I
Description: Transactivation on adenoviral (Av3)-delivered ER variant, luciferase in HeLa cells. From the text:
For example, the ER LBD mutants of the present invention were constructed into a replication defective adenoviral vector (Av3) backbone DNA sequence so that this regulatory system could be delivered into cells for clinical application and testing. An Av3 vector containing a series of C7 binding sites linked to an SV40 minimal promoter and luciferase transgene (C7-SV40-luc) was also constructed and delivered simultaneously with each of the Av3 ER LBD mutant vectors. The cells were then exposed to the corresponding ligand to test the capability of the adenoviral-delivered ER mutants to respond to their corresponding ligands and then mediate the transcription of the luciferase transgene in the context of an adenoviral vector. […] Xu et al., Molecular Therapy, 3:262-273, 2000.

In the case of `CN(C)CCOc1ccc(/C(=C(/CC2CC3CCC2C3)c2ccccc2)c2ccc(O)cc2)cc1` (stereo not drawn) [LBB938, 4-((1Z))-3-bicyclo[hept-2-yl-1-{4-[2-(dimethylamino)ethoxy]phenyl}-2-phenylprop-1-enyl)phenol], the “luciferase activity over the basal level” value on Av3-388V/424Y/428A worked out at 19 fold. In addition, the “Fold Induction” value in series [1] (100 nM ligand vs without ligand) turned out to be 90 fold. Also, the “Luciferase Expression Levels (Relative Light Units)” value in series [1] ((+) induced with 100 nM ligand, mean +/− standard error (n = 4)) is recorded as 3284939 +/− 116076 Relative Light Units. Further, the “endostatin expression, result in words” value in series [2] is given as “induce endostatin expression”. The “Endostatin Levels” value in series [2] (Day 1) is 6074 ± 3536 ng/mL; in series [2] (Day 3) it was 2332 ± 333 ng/mL; in series [2] (Day 7), 600 ± 72 ng/mL. Further, the EC50 at ER-LBD 388V/424Y/428A (HeLa cells cotransfected with pC7ERLBD 388V/424Y/428A and p6x2C7Luc, 0.1 to 1000 nM, mean of two or more experiments, read-out: EC50 ± STDEV) was 28.4 nM and ~28 nM. The “sensitivity of mutant ER LBD 388V/424Y/428A to LBB 938 relative to estrogen” value at ER-LBD 388V/424Y/428A (ratio of EC50 values) is “approximately eight”. Further, the IC50 on wild-type ER turned out to be 388 nM.

On to `COC(=O)NC/C(=C(/c1ccc(O)cc1)c1ccc(OCCN(C)C)cc1)c1ccccc1` [LBB551, Carbamic acid, [(2Z)-3-[4-[2-(dimethylamino)ethoxy]phenyl]-3-(4-hydroxyphenyl)-2-phenyl-2-propenyl]-, methyl ester], for which the melting point is 122 to 123 °C. In addition, the half-maximal effective concentration (EC50) on ER-LBD 421V/428A was 4.89 nM. Besides, at wild-type ER, the IC50 was determined as 955 nM.

`COC(=O)NC/C(=C(\c1ccc(O)cc1)c1ccc(OCCN(C)C)cc1)c1ccccc1` [LBC081, Carbamic acid, [(2E)-3-[4-[2-(dimethylamino)ethoxy]phenyl]-3-(4-hydroxyphenyl)-2-phenyl-2-propenyl]-, methyl ester] showed a melting point of 161 to 162 °C. Also, the EC50 at ER-LBD 421V/428A was 11.7 nM. In addition, the IC50 on wild-type ER was determined as 845 nM. At Av3-421/428 (100 nM test compound, 24 hrs (FIG. 5)), the “response relative to basal activity / fold induction” value was “three”. Moreover, the fold induction at 0.1 µM on Av3-421/428 (read-out: response relative to basal activity / fold induction) was determined as 3.
